The values below come from PubChem BioAssay (NCI).

Experiment in all cases: growth of human tumour cells (NCI), 48 h
For assay [1], the system named is HT29 colon.
The test system of assay [2] is ACHN renal.
Assay [3] relates to IGROV1 ovarian.
In assay [4] the test system is MALME-3M melanoma.
For assay [5], the system named is MOLT-4 leukemia.
Assay [6] deals with M14 melanoma.
Assay [7] has as its system OVCAR-3 ovarian.
Assay [8] deals with CCRF-CEM leukemia.
The subject of assay [9] is U251 CNS.
Assay [10] concerns EKVX NSCLC.

Several values for one entry are separate records, joined by “and”; a condition that tells them apart may be missing. Identical values can stand only once.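 Briefly, cells in 96-well plates were exposed to five compound concentrations for 48 h, and endpoints were estimated by linear interpolation. Here, GI50 denotes the concentration required for 50% inhibition of growth. Definition used: TGI = concentration required for complete inhibition of growth.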 A value given as a limit tells only on which side of the number the result lay.

For the compound `CCOC(=O)CCc1cc(=O)oc2cc(O)cc(O)c12`, the TGI in assay [1], in assay [2], in assay [3], in assay [4], in [5] and in assay [6] was above 100 µM throughout. Also, the TGI in assay [7], in [8], in assay [9] and in assay [10] was above 100 µM each time.

Consider `O=C1c2c(c3c4ccccc4n(CCCCCCBr)c3c3[nH]c4ccccc4c23)C(=O)N1O`, for which the GI50 in assay [1] was 1.73 µM; in [2] it was 2610 nM; in assay [3] it was 2.13 µM; in assay [4], 2.65 µM; in assay [5], 1.94 µM; in assay [6] it was 2.07 µM. For the same compound, the GI50 was 3.06 µM in [7], 2.14 µM in assay [8], 3.47 µM in assay [9] and 2.58 µM in assay [10]. The TGI in assay [1] was determined as 3.25 µM; in assay [2] it was 11.1 µM; in assay [3] it was 9.38 µM; in [4], 7.74 µM; in assay [5], 5.68 µM; in assay [6], 7.68 µM. Further, the TGI in assay [7] was determined as 13 µM; in [8] it was 5.53 µM; in [9], 13.3 µM; in [10], 9.57 µM.

For `Cc1ccc(S(=O)(=O)N(CCOc2ccc(/C(N)=N/Cl)cc2)CCOc2ccc(/C(N)=N\Cl)cc2)cc1`, the GI50 in assay [1] is 9.8 µM; in assay [2], above 100000 nM; in assay [3] it was 11.7 µM; in assay [4] it was 19.6 µM; in assay [5] it was 30.6 µM; in assay [6], 35.1 µM. In addition, the GI50 is 5.99 µM in assay [7], 11.6 µM in [8], 3.91 µM in assay [9] and 18.4 µM in [10]. Moreover, the TGI in [1] is above 100 µM; in assay [2], above 100 µM; in assay [3], 40.7 µM; in assay [4], 83.6 µM; in assay [5] it was above 100 µM; in [6], above 100 µM. Moreover, the TGI is 31 µM in assay [7], above 100 µM in assay [8], 16.8 µM in assay [9] and 93.2 µM in assay [10].

Regarding `N#C/C(=C/c1ccsc1)C(=O)c1ccccc1`, the TGI in [1], in [2], in [4], in assay [5], in assay [6] and in [7] was above 100 µM in each case. Further, the TGI in assay [8], in assay [9] and in [10] was above 100 µM in each case.

As for `COC1C(CN[N+](=O)CC2OC3OC(C)(C)OC3C2OC)OC2OC(C)(C)OC21` (configuration not stated), the TGI in [1], in assay [2], in [3], in [4], in assay [5] and in assay [6] was above 100 µM each time. For the same compound, the TGI in [7], in assay [8], in [9] and in assay [10] was above 100 µM throughout.

For the compound `CCCCNC1=C(C(=O)OCC)C(=O)CO1`, the TGI in [1], in [2], in assay [3], in assay [4], in [5] and in assay [6] was above 100 µM throughout. Moreover, the TGI in assay [7], in assay [8], in [9] and in [10] was above 100 µM throughout.

For the compound `CN(C(=O)C12C3C4C1C1C2C3C41C(=O)C(C)(C)C)C(C)(C)C` (configuration not stated), the TGI in assay [1], in assay [2], in assay [3], in assay [4], in [5] and in [6] was above 100 µM throughout. In addition, the TGI in assay [7], in [8], in [9] and in assay [10] was above 100 µM in each case.

`COC(=O)c1cc2c3ccccc3[nH]c2c2ncccc12`: the GI50 in assay [1] was 59.2 µM; in assay [2] it was 11200 nM; in assay [3], 2.09 µM; in [4], above 100 µM; in assay [5] it was above 100 µM; in assay [7], above 100 µM. In addition, the values for the GI50 in assay [8], in [9] and in assay [10] were 32.4 µM, 30.6 µM and 11.5 µM, respectively. Besides, the TGI in [1], in assay [2], in [3], in assay [4], in assay [5] and in assay [7] was above 100 µM each time. For the same compound, the TGI in assay [8], in assay [9] and in assay [10] was above 100 µM in each case.

Take `CCOC(=O)/C=C(/C(=O)OCC)n1cc(Cl)c(=O)n(CC(=O)OCC)c1=O`: the GI50 in assay [1] was 22.5 µM; in [2] it was 2550 nM; in [3], 17.8 µM; in [5] it was 3.29 µM; in assay [6], 18 µM; in assay [7], 10.5 µM. Further, the GI50 is 2.12 µM in assay [8], 21 µM in assay [9] and 23.4 µM in [10]. In addition, the TGI was 9.38 µM and 52 µM in [1]; 7.35 µM and 6.22 µM in [2]; 9.25 µM and 37.1 µM in [3]; 10.3 µM in assay [4]; 25 µM and 10.5 µM in assay [5]; 10.4 µM and 40.2 µM in assay [6]. For the same compound, the TGI is 14.3 µM and 28.8 µM in assay [7]; 1.13 µM and 5.65 µM in assay [8]; 13.6 µM and 38.9 µM in assay [9]; 10.3 µM and 53.1 µM in [10].

For the compound `CSc1ccc(C2=NN(C(C)=O)C(c3cc(C)cs3)C2)cc1` (configuration not stated), the GI50 in [1] is 24.9 µM; in assay [2], 30100 nM; in [3], 29.7 µM; in assay [4], 25.5 µM; in [5], 7.26 µM; in [7], 23.9 µM. Moreover, the GI50 in assay [8] is 26.7 µM; in assay [9], 32.8 µM; in assay [10] it was 24.3 µM. Further, the TGI in [1] was above 100 µM; in [2] it was above 100 µM; in [3], above 100 µM; in assay [4], 97.5 µM; in assay [5], 44.1 µM; in [7] it was above 100 µM. Further, the TGI in assay [8], in assay [9] and in assay [10] was above 100 µM each time.

As for `COc1cc(C2c3cc4c(cc3C(NCC(O)CO)C3COC(=O)[C@H]23)OCO4)cc(OC)c1OC` (some centres not stated), the TGI in assay [1], in assay [2], in assay [3], in assay [4], in assay [5] and in [6] was above 100 µM each time. The TGI in assay [8] was above 100 µM; in [9], 0.766 µM; in assay [10], above 100 µM.

As for `OCCC1(O)CCC(O)CC1` (configuration not stated), the TGI in assay [1], in assay [3], in assay [4], in assay [5], in [6] and in assay [7] was above 100 µM throughout. Also, the TGI in [8], in [9] and in [10] was above 100 µM throughout.

Turning to `COC(=O)CC(=O)C[P+](c1ccccc1)(c1ccccc1)c1ccccc1`, the TGI in assay [1], in assay [2], in assay [3], in assay [4], in [5] and in [7] was above 218 µM throughout. Moreover, the TGI in [8], in assay [9] and in assay [10] was above 218 µM each time.

Regarding `CCOC(=O)NC(=O)c1cn(C2OC(COC(=O)CCCCCCCCC(=O)OCC3OC(n4cc(C(=O)NC(=O)OCC)c(=O)[nH]c4=O)C(O)C3O)C(O)C2O)c(=O)[nH]c1=O` (configuration not stated), the TGI in assay [1], in assay [2], in assay [3], in assay [4], in [5] and in assay [6] was above 100 µM each time. Besides, the TGI in assay [7], in [8] and in assay [10] was above 100 µM throughout.

Turning to `OCc1ccc2[n+](c1)CCC1c3ccccc3NC21` (configuration not stated), the TGI in assay [1], in assay [2], in assay [3], in [4], in assay [5] and in assay [7] was above 300 µM in each case. Also, the TGI in assay [8], in assay [9] and in [10] was above 300 µM each time.

With `CN1CCN(Cc2ccc(NC(=O)c3cncc(C#Cc4cnc(N)c5ccc(C#N)cc45)c3)cc2C(F)(F)F)CC1`, the GI50 in assay [1] is 0.0211 µM; in assay [2], 23.7 nM; in assay [4], 0.0134 µM; in assay [5], 0.028 µM; in assay [6] it was 0.0151 µM; in assay [7], 0.331 µM. In addition, the values for the GI50 in [8], in [9] and in [10] were 0.0803 µM, 0.0235 µM and 0.185 µM, respectively. Moreover, the TGI in assay [1] amounted to 0.838 µM; in [2], 0.526 µM; in assay [4] it was 0.0943 µM; in [5] it was 1.4 µM; in assay [6], 0.258 µM; in [7], 1.45 µM. In addition, the TGI in assay [8] was 2.05 µM; in assay [9], 0.846 µM; in assay [10] it was 6.13 µM.
